Literature values as cited in patent US12419848B2, “Treatment of hyperinflammatory syndrome” (priority 2020, dated 2025).
pEC50: −log10 of the molar value.

What was measured:
P2X7R = target: T1, P2X7R (Homo sapiens, UniProt Q99572); details: read-out: EC50 to activate P2X7R; cited from earlier work
T1 sequence (Q99572 1-595): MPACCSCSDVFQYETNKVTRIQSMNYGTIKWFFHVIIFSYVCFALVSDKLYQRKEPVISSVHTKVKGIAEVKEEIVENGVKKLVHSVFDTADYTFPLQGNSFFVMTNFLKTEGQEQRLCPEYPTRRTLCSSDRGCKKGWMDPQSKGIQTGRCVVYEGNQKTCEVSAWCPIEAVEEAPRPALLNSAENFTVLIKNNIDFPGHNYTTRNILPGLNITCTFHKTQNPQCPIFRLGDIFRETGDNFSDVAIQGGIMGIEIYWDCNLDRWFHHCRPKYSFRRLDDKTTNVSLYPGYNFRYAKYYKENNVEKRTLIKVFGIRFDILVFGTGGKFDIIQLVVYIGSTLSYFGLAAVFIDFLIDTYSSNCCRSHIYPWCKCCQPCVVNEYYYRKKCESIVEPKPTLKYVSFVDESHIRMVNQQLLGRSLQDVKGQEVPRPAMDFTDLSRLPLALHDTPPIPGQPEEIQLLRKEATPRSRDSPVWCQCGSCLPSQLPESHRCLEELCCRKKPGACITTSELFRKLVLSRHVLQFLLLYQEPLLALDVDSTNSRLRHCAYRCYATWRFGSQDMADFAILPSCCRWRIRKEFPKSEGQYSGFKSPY

P1 receptors = details: cited from earlier work

SMILES	pEC50 (P2X7R)	EC50 (extracellular concentration for half maximal effect) (P1 receptors)
Nc1ncnc2c1ncn2[C@@H]1O[C@H](COP(=O)(O)OP(=O)(O)OP(=O)(O)O)[C@@H](O)[C@H]1O [ATP]	< 3.00	
Nc1ncnc2c1ncn2[C@@H]1O[C@H](CO)[C@@H](O)[C@H]1O [adenosine]		nanomolar range
